Reference: PMC4997874 (Antimicrobial Agents and Chemotherapy, 2016)
“And” between values parts separate entries of the source, which are not always exact repeats. Identical values can stand only once. Counter-ions that a name gives are not always drawn. Marks after values point to notes of the source that are not given here.

Columns and labels:
in vitro = conditions: sheep; for viability at 1 µM: % cell viability
[1] = system: PrP^Sc accumulation in persistently infected hTERT-ovine microglia; assay type: cell-based; conditions: for EC50: read-out: TC-EC50 (50% tissue culture effective concentration)
[2] = system: PrP^Sc-positive hTERT-ovine microglia
[3] = system: PrP^Sc-positive hTERT-ovine microglia; assay: cells; assay type: cell-based; conditions: for activity at 1 µM: Ovis aries, Microglia, 96 h, read-out: % BrdU incorporation
[4] = system: PrP^Sc-positive hTERT-ovine microglia; assay: cells; assay type: cell-based; conditions: Ovis aries, 96 h, read-out: % cell count
[5] = biological target: PrP^Sc in scrapie-positive sheep brain homogenate (Ovis aries, UniProt P23907); assay type: biochemical
Chain of PrP^Sc in scrapie-positive sheep brain homogenate (P23907 25-233 limits assumed): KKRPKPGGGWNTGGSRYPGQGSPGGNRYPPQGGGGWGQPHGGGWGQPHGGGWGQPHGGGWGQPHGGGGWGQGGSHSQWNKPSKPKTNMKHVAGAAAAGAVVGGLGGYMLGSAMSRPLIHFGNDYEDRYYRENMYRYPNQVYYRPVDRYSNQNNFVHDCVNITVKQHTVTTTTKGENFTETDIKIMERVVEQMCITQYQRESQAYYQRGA

[6] = system: PrP^Sc accumulation in scrapie-infected primary ovine microglia; conditions: cited from earlier work
[7] = system: PRNP transcripts in PrP^Sc-negative hTERT-ovine microglia; assay type: cell-based
[8] = system: total PrP^C in PrP^Sc-negative hTERT-ovine microglia; assay type: cell-based

N=C(N)c1ccc(-c2ccc(-c3ccc(C(=N)N)cc3)o2)cc1 [DB075, furamidine]
viability at 1 µM (in vitro): 149%
% reduction in PrP^Sc [1]: 27%

Cn1c(-c2nc3ccc(C(=N)N)cc3[nH]2)ccc1-c1nc2ccc(C(=N)N)cc2[nH]1 [DB191]
CC50 (in vitro): > 3.16 µM
viability at 1 µM (in vitro): 188%
% reduction in PrP^Sc [1]: 65^d %
Selectivity index (CC50/TC-EC50) [1]: >6.4^e
EC50 [1]: 490 ± 140 nM
Effect on cell viability in dilution series [2]: failed to demonstrate any effect on cell viability
activity at 1 µM [3]: 74%
viability at 1 µM [4]: 88%

N=C(N)c1ccc2nc(-c3ccc(-c4nc5ccc(C(=N)N)cc5[nH]4)[nH]3)[nH]c2c1 [DB192]
CC50 (in vitro): > 3.16 µM
viability at 1 µM (in vitro): 150%
% reduction in PrP^Sc [1]: 61^d %
Selectivity index (CC50/TC-EC50) [1]: >3.5^e
EC50 [1]: 910 ± 80 nM
Effect on cell proliferation (BrdU) over the 4-day treatment period [3]: significant effect on cell proliferation was not detected
activity at 1 µM [3]: 101%
viability at 1 µM [4]: 98%

N=C(N)c1ccc2nc(-c3cccc(-c4nc5ccc(C(=N)N)cc5[nH]4)n3)[nH]c2c1 [DB205]
viability at 1 µM (in vitro): 127%
% reduction in PrP^Sc [1]: 52^d %

N=C(N)c1ccc(-c2ccc(-c3nc4ccc(C(=N)N)cc4[nH]3)o2)cc1 [DB293]
viability at 1 µM (in vitro): 135%
% reduction in PrP^Sc [1]: 51^f %

c1cc(-c2ccc(-c3nc4ccc(C5=NCCN5)cc4[nH]3)o2)ccc1C1=NCCN1 [DB302]
viability at 1 µM (in vitro): 205%
% reduction in PrP^Sc [1]: 19%

N=C(N)c1ccc2nc(-c3ccc(-c4ccc([N+](=O)[O-])cc4)o3)[nH]c2c1 [DB472]
viability at 1 µM (in vitro): 120%
% reduction in PrP^Sc [1]: 11%

N=C(N)c1ccc(-c2ccc(-c3nc4ccccc4[nH]3)o2)cc1 [DB771]
viability at 1 µM (in vitro): 98%
Stabilization of PrP^Sc against PK digestion [5]: significant stabilization of PrP^Sc was not detected
% reduction in PrP^Sc [1]: 27%

c1ccc2[nH]c(-c3ccc(-c4ccc(C5=NCCN5)cc4)o3)nc2c1 [DB772, 2-(2-benzimidazolyl)-5-[4-(2-imidazolino)phenyl] furan dihydrochloride]
CC50 (in vitro): 3.8 ± 0.9 µM
viability at 1 µM (in vitro): 96%
Inhibition of PrP^Sc accumulation [6]: nearly complete inhibition
Effect on PrP^C expression (PRNP transcripts) [7]: significant effect on PrP^C expression was not detected
EC50 [1]: 800 ± 90 nM
Effect on PrP^C expression (total PrP) [8]: significant effect on PrP^C expression was not detected
Effect on cell proliferation (BrdU) over the 4-day treatment period [3]: significant effect on cell proliferation was not detected
activity at 1 µM [3]: 78%
viability at 1 µM [4]: 89%

N=C(N)c1ccc(-c2ccc(-c3nc4ccc(C(=N)N)cc4[nH]3)s2)cc1 [DB818A]
CC50 (in vitro): > 3.16 µM
viability at 1 µM (in vitro): 170%
Stabilization of PrP^Sc against PK digestion [5]: significant stabilization of PrP^Sc was not detected
% reduction in PrP^Sc [1]: 74^f %
EC50 [1]: 460 ± 80 nM
activity at 1 µM [3]: 76%
viability at 1 µM [4]: 85%

Cc1cc(C(=N)N)ccc1-c1ccc(-c2nc3ccc(C(=N)N)cc3[nH]2)o1 [DB850]
viability at 1 µM (in vitro): 154%
% reduction in PrP^Sc [1]: 11%

Nc1cccc(-c2ccc(-c3nc4ccc(C5=NCCN5)cc4[nH]3)o2)c1 [DB900]
viability at 1 µM (in vitro): 125%
% reduction in PrP^Sc [1]: −5%

c1ccc2[nH]c(-c3ccc(-c4ccc(C5=NCCN5)cc4)s3)nc2c1 [DB932A]
CC50 (in vitro): 2.5 ± 0.3 µM
viability at 1 µM (in vitro): 81%
Stabilization of PrP^Sc against PK digestion [5]: significant stabilization of PrP^Sc was not detected
% reduction in PrP^Sc [1]: 70^f %
EC50 [1]: 390 ± 110 nM
activity at 1 µM [3]: 66%
viability at 1 µM [4]: 92%

Cn1c(-c2ccc(-c3ccc(C4=NCCN4)cc3)o2)nc2ccccc21 [DB948]
CC50 (in vitro): 1.5 ± 0.5 µM
viability at 1 µM (in vitro): 60%
% reduction in PrP^Sc [1]: 83% and 83^f %
EC50 [1]: 430 ± 150 nM
viability at 1 µM [4]: 68%

c1ccc(-c2ccc(-c3nc4ccc(C5=NCCN5)cc4[nH]3)s2)cc1 [DB953]
viability at 1 µM (in vitro): 134%
% reduction in PrP^Sc [1]: 53^f %

N=C(N)c1ccc2nc(-c3ccc(-c4ccc(C(=N)N)c(F)c4)o3)[nH]c2c1 [DB989]
viability at 1 µM (in vitro): 126%
% reduction in PrP^Sc [1]: 26%

N=C(N)c1ccc2nc(-c3ccc(-c4ccc(C(=N)N)c(O)c4)o3)[nH]c2c1 [DB992]
viability at 1 µM (in vitro): 150%
% reduction in PrP^Sc [1]: 30%

N=C(N)c1ccc2nc(-c3ccc(-c4nc5ccc(C(=N)N)cc5[nH]4)s3)[nH]c2c1 [DB1033]
CC50 (in vitro): > 3.16 µM
viability at 1 µM (in vitro): 91%
% reduction in PrP^Sc [1]: 81% and 81^d %
Selectivity index (CC50/TC-EC50) [1]: >5.4^e
EC50 [1]: 580 ± 140 nM
Effect on cell viability in dilution series [2]: failed to demonstrate any effect on cell viability
activity at 1 µM [3]: 68%
viability at 1 µM [4]: 96%

N=C(N)c1ccc(-c2ccc(-c3ccc(-c4nc5ccc(C(=N)N)cc5[nH]4)cc3)o2)nc1 [DB1264]
CC50 (in vitro): > 3.16 µM
viability at 1 µM (in vitro): 138%
% reduction in PrP^Sc [1]: 68^f %
Selectivity index (CC50/TC-EC50) [1]: >8.1^e
EC50 [1]: 390 ± 60 nM
Effect on cell proliferation (BrdU) over the 4-day treatment period [3]: significant effect on cell proliferation was not detected
activity at 1 µM [3]: 77%
viability at 1 µM [4]: 89%

N=C(N)c1ccc2nc(-c3ccc(-c4ccc(-c5ccccc5)cc4)o3)[nH]c2c1 [DB1275]
viability at 1 µM (in vitro): 115%
% reduction in PrP^Sc [1]: 49^f %

N=C(N)c1ccc2nc(-c3ccc(-c4nc5ccc(C(=N)N)cc5[nH]4)[se]3)[nH]c2c1 [DB1310]
CC50 (in vitro): > 3.16 µM
viability at 1 µM (in vitro): 110%
% reduction in PrP^Sc [1]: 77% and 77^d %
Selectivity index (CC50/TC-EC50) [1]: >7.7^e
EC50 [1]: 410 ± 80 nM
Effect on cell proliferation (BrdU) over the 4-day treatment period [3]: significant effect on cell proliferation was not detected
activity at 1 µM [3]: 91%
viability at 1 µM [4]: 92%

N=C(N)c1ccc(-c2ccc(-c3cnc4ccc(C(=N)N)cc4c3)s2)cc1 [DB1504]
CC50 (in vitro): > 3.16 µM
viability at 1 µM (in vitro): 156%
Selectivity index (CC50/TC-EC50) [1]: >8.1^e
EC50 [1]: 390 ± 110 nM
Effect on cell proliferation (BrdU) over the 4-day treatment period [3]: significant effect on cell proliferation was not detected
activity at 1 µM [3]: 100%
viability at 1 µM [4]: 102%

N=C(N)c1ccc2nc(-c3ccc(-c4ccc(C(N)=O)cc4)o3)[nH]c2c1 [DB1932]
viability at 1 µM (in vitro): 120%
% reduction in PrP^Sc [1]: 24%

N=C(N)c1ccc2nc(-c3ccc(-c4ccc(C(N)=O)cc4)s3)[nH]c2c1 [DB1933]
viability at 1 µM (in vitro): 127%
% reduction in PrP^Sc [1]: 39%

N=C(N)c1ccc2nc(-c3ccc(-c4ccc(-c5nc6ccc(C(=N)N)cc6[nH]5)o4)cc3)[nH]c2c1 [DB2137]
viability at 1 µM (in vitro): 102%
% reduction in PrP^Sc [1]: 31%

N=C(N)c1ccc2nc(-c3ccc(-c4cccc(-c5ccc(-c6nc7ccc(C(=N)N)cc7[nH]6)o5)c4)o3)[nH]c2c1 [DB2147]
viability at 1 µM (in vitro): 90%
% reduction in PrP^Sc [1]: 37%

N=C(N)c1ccc(-c2ccc(-c3ccc(-c4nc5ccc(C(=N)N)cc5[nH]4)cc3)s2)cc1 [DB2214]
CC50 (in vitro): > 3.16 µM
viability at 1 µM (in vitro): 180%
% reduction in PrP^Sc [1]: 69^f %
EC50 [1]: 260 ± 140 nM
activity at 1 µM [3]: 68%
viability at 1 µM [4]: 84%

N=C(N)c1ccc2nc(-c3ccc(-c4ccc(OCc5cn(CCc6cccc7ccccc67)nn5)cc4)s3)[nH]c2c1 [DB2228]
CC50 (in vitro): > 3.16 µM
viability at 1 µM (in vitro): 120%
% reduction in PrP^Sc [1]: 63^f %
Selectivity index (CC50/TC-EC50) [1]: >15.8^e
EC50 [1]: 200 ± 80 nM
Effect on cell proliferation (BrdU) over the 4-day treatment period [3]: significant effect on cell proliferation was not detected
activity at 1 µM [3]: 92%
viability at 1 µM [4]: 82%

COc1ccc(-c2ccc(-c3nc4ccc(C(=N)N)cc4[nH]3)s2)cc1 [DB2263]
viability at 1 µM (in vitro): 108%
% reduction in PrP^Sc [1]: 46^f %

N=C(N)c1ccc2nc(-c3ccc(NC(=O)Nc4ccc(-c5nc6ccc(C(=N)N)cc6[nH]5)cc4)cc3)[nH]c2c1 [DB2265]
viability at 1 µM (in vitro): 105%
% reduction in PrP^Sc [1]: 28%
